Legend:
Format in all cases: in vivo
Avena fatua (AVEFA) [1] = experiment: Herbicidal pre-emergence action; settings: graded after ca. 3 weeks
From the text: (§1) Seeds of mono- and dicotyledonous weed plants and crop plants were sown, in plastic or organic planting pots, in sandy loam and covered with soil. The compounds according to the invention, formulated in the form of wettable powders (WP) or as emulsifiable concentrates (EC), were applied to the surface of the covering soil as aqueous suspension or emulsion, with the addition of 0.5% of an additive, at an application rate of 600 1 of water/ha (converted).
(§2) Following treatment, the pots were placed in a greenhouse and kept under optimum growth conditions for the test plants. The visual grading of the damage to the test plants was carried out after ca. 3 weeks in comparison to untreated controls (herbicidal effect in percent (%): 100% effect=plants have died off, 0% effect=as control plants).
(§3) Tables A1 to A16, below, show the effects of selected compounds of the general formula (I) according to table 1 on various harmful plants and an application rate corresponding to 1280 g/ha or lower obtained by the experimental procedure mentioned above.

[2] = test system: Alopecurus myosuroides (ALOMY); experiment: Herbicidal pre-emergence action; settings: 1280 g/ha, graded after ca. 3 weeks
From the text: as §1, §2, §3

Setaria viridis (SETVI) = experiment: Herbicidal post-emergence action; settings: 1280 g/ha, assessed after ca. 3 weeks
From the text: (§4) Seeds of mono- and dicotyledonous weed plants and crop plants were sown, in plastic or organic planting pots, in sandy loam, covered with soil and grown in a greenhouse under controlled growth conditions. 2 to 3 weeks after sowing, the test plants were sprayed in the single-leaf stage. The compounds according to the invention, formulated in form of wettable powders (WP) or as emulsifiable concentrates (EC), were sprayed onto the green plant parts as aqueous suspension or emulsion, with the addition of 0.5% of an additive, at an application rate of 600 1 of water/ha (converted). The test plants were placed in the greenhouse for ca. 3 weeks under optimum growth conditions, and then the effect of the preparations was assessed visually in comparison with untreated controls (herbicidal effect in percent (%): 100% effect=plants have died off, 0% effect=as control plants).
(§5) Tables B1 to B16 below show the effects of selected compounds of the general formula (I) according to table 1 on various harmful plants and an application rate corresponding to 1280 g/ha or 320 g/ha obtained by the experimental procedure mentioned above.

[3] = test system: Alopecurus myosuroides (ALOMY); experiment: Herbicidal post-emergence action; settings: 1280 g/ha, assessed after ca. 3 weeks
From the text: as §4, §5

[4] = test system: Echinochloa crus-galli (ECHCG); experiment: Herbicidal post-emergence action; settings: 1280 g/ha, assessed after ca. 3 weeks
From the text: as §4, §5

[5] = test system: Lolium multiflorum (LOLMU); experiment: Herbicidal post-emergence action; settings: 1280 g/ha, assessed after ca. 3 weeks
From the text: as §4, §5

Avena fatua (AVEFA) [6] = experiment: Herbicidal post-emergence action; settings: 1280 g/ha, assessed after ca. 3 weeks
From the text: as §4, §5

[7] = test system: Echinochloa crus-galli (ECHCG); experiment: Herbicidal pre-emergence action; settings: 1280 g/ha, graded after ca. 3 weeks
From the text: as §1, §2, §3

[8] = test system: Lolium multiflorum (LOLMU); experiment: Herbicidal pre-emergence action; settings: 1280 g/ha, graded after ca. 3 weeks
From the text: as §1, §2, §3

[9] = test system: Polygonum convolvulus (POLCO); experiment: Herbicidal pre-emergence action; settings: graded after ca. 3 weeks
From the text: as §1, §2, §3

Compound | Pre-emergence activity against AVEFA (Avena fatua (AVEFA) [1]; 1280 g/ha) [%] | Pre-emergence activity against ALOMY [2] [%] | Post-emergence activity against ALOMY [3] [%] | Post-emergence activity against ECHCG [4] [%] | Post-emergence activity against AVEFA (Avena fatua (AVEFA) [6]) [%] | also measured
C#CCNC(=O)CC1CCC(=O)N1Cc1cccc(F)c1F (racemic) [Example I-092] | 80 |  |  |  |  | 
COCCNC(=O)CC1CCC(=O)N1Cc1cccc(F)c1F (racemic) [Example I-091] |  | 90 |  |  |  | 
O=C(CC1CCC(=O)N1Cc1cccc(F)c1F)OCCSc1ccc(Cl)cc1 (racemic) [Example I-038] |  |  | 80 | 90 |  | Post-emergence activity against SETVI (Setaria viridis (SETVI)): 80%; Post-emergence activity against LOLMU [5]: 80%
CC(C)S(=O)(=O)NC(=O)CC1CCC(=O)N1Cc1cccc(F)c1F (racemic) [Example I-076] | 80 |  |  |  | 80 | 
O=C(CC1CCC(=O)N1Cc1cccc(F)c1F)NCCO (racemic) [Example I-049] | 100 | 90 | 80 |  |  | Pre-emergence activity against ECHCG [7]: 80%; Pre-emergence activity against LOLMU [8]: 80%; Pre-emergence activity against POLCO ([9]; 1280 g/ha): 90%
CCn1ccc(CNC(=O)CC2CCC(=O)N2Cc2cccc(F)c2F)n1 (racemic) [Example I-085] |  |  |  |  | 90 | 
CN(C(=O)CC1CCC(=O)N1Cc1cccc(F)c1F)c1ccccc1 (racemic) [Example I-100] |  | 90 |  |  |  | 
CCNC(=O)CC1CCC(=O)N1Cc1cccc(F)c1F (racemic) [Example I-098] |  |  |  |  | 80 | 
O=C(CC1CCC(=O)N1Cc1cccc(F)c1F)NS(=O)(=O)C(F)F (racemic) [Example I-074] |  |  |  | 80 |  | 
Cc1ccc(CN2C(=O)CCC2CC(=O)O)c(F)c1F (racemic) [Example I-035] | 100 |  | 80 | 90 | 90 | Pre-emergence activity against ECHCG [7]: 80%; Post-emergence activity against SETVI (Setaria viridis (SETVI)): 100%; Post-emergence activity against LOLMU [5]: 80%
C=CCNC(=O)CC1CCC(=O)N1Cc1cccc(F)c1F (racemic) [Example I-059] | 80 | 80 |  | 80 | 80 | 
CC(C)CC(NC(=O)CC1CCC(=O)N1Cc1cccc(F)c1F)C(=O)O (mixture of isomers) [Example I-045] | 90 |  | 80 |  |  | Pre-emergence activity against ECHCG [7]: 80%; Post-emergence activity against SETVI (Setaria viridis (SETVI)): 80%; Post-emergence activity against LOLMU [5]: 80%
O=C(CC1CCC(=O)N1Cc1cccc(F)c1F)NS(=O)(=O)C1CC1 (racemic) [Example I-086] |  |  |  | 80 |  | 
O=C(O)CC1CCC(=O)N1Cc1c(F)ccc(F)c1F (stereo not shown) [Example I-191, [5-Oxo-1-(2,3,6-trifluorobenzyl)pyrrolidin-2-yl]acetic acid] |  |  |  |  |  | Pre-emergence activity against AVEFA (Avena fatua (AVEFA) [1]; 320 g/ha): 100%
O=C(CC1CCC(=O)N1Cc1cccc(F)c1F)NCCc1ccccc1 (racemic) [Example I-061] | 90 | 80 | 90 | 80 | 90 | 
O=C(CC1CCC(=O)N1Cc1cccc(F)c1F)NN1CCCCC1 (racemic) [Example I-203] |  |  |  |  |  | Pre-emergence activity against AVEFA (Avena fatua (AVEFA) [1]; 320 g/ha): 100%; Pre-emergence activity against POLCO ([9]; 320 g/ha): 80%

From US20240199542A1, “SUBSTITUTED PYRROLIDIN-2-ONES, SALTS THEREOF AND THEIR USE AS HERBICIDALLY ACTIVE SUBSTANCES” (Bayer Aktiengesellschaft, priority 2021, published 2024)
